Results as given in patent US9987237B2, “Methods and devices for using isoperillyl alcohol” (NEONC TECHNOLOGIES INC., priority 2010, dated 2018).

What was measured:
[1] = test system: glucose-regulatory protein 78 (GRP-78) and the apoptosis marker CHOP; assay: Western blot for ER stress markers in U251 cells; assay type: cell-based, human; conditions: U251 TMZ-sensitive and TMZ-resistant (U251-TR1, U251-TR2) cells, 1.5 mM, 18 hours
Method: U251 TMZ-sensitive and TMZ-resistant (U251-TR1, U251-TR2) cells were treated with Sigma POH (1.5 mM) or GLP POH (1.5 mM) for 18 hours, then Western blot was performed.

[2] = test system: Kras; assay: Western blot for Kras expression in U251 glioma cells; assay type: cell-based, human; conditions: 500 μM, 24 hours
Method: U251 glioma cells were treated with 500 μM Sigma POH, GLP POH or iso-POH (isoPOH65, isoPOH79) for 24 hours, then Western blot was performed.

[3] = test system: LN229 human glioma cells; assay: MTT cytotoxicity assay, LN229 glioma cells; assay type: cell-based
Description: (§1) J. of Immunological Methods 65: 55 63, 1983. The cytoxicity of the present compound may be studied by colony formation assay. […] Invasion inhibition may be studied by Boyden chambers. In this assay a layer of reconstituted basement membrane. […] Sigma POH is the POH purchased from Sigma Chemicals having a purity of about 96%. […] KWH0744 is the crude POH purchased from Wako having a purity of about 89.5%. […] In vitro cytotoxicity of iso-POH in temozolomide-sensitive or temozolomide-resistant cells were also studied. […] Similarly.

[4] = test system: A172 temozolomide-resistant cells; assay: MTT cytotoxicity assay, A172 temozolomide-resistant cells; assay type: cell-based, human; conditions: 48 hours, FIG. 4B
Description: (§2) J. of Immunological Methods 65: 55 63, 1983. The cytoxicity of the present compound may be studied by colony formation assay. […] Invasion inhibition may be studied by Boyden chambers. In this assay a layer of reconstituted basement membrane. […] In vitro cytotoxicity of iso-POH in temozolomide-sensitive or temozolomide-resistant cells were also studied. […] Similarly.

[5] = test system: U87 temozolomide-resistant cells; assay: MTT cytotoxicity assay, U87 temozolomide-resistant cells; assay type: cell-based, human; conditions: 48 hours, FIG. 7B
Description: as §2

[6] = test system: U251 temozolomide-resistant cells; assay: MTT cytotoxicity assay, U251 temozolomide-resistant cells; assay type: cell-based, human; conditions: 0 mM-3 mM
Description: as §2

[7] = test system: LN229 temozolomide-resistant cells; assay: MTT cytotoxicity assay, LN229 temozolomide-resistant cells; assay type: cell-based, human; conditions: 48 hours, FIG. 6B
Description: as §2

[8] = test system: U251 human glioma cells; assay: MTT cytotoxicity assay, U251 glioma cells; assay type: cell-based
Description: as §1

[9] = test system: U87 human glioma cells; assay: MTT cytotoxicity assay, U87 glioma cells; assay type: cell-based; conditions: U87 temozolomide sensitive, 48 hours, FIG. 7A
Description: as §2

[10] = test system: A172 human glioma cells; assay: MTT cytotoxicity assay, A172 glioma cells; assay type: cell-based
Description: as §1

In the case of `C=C(C)[C@@H]1CC=C(CO)CC1` [Sigma POH, perillyl alcohol], the “endoplasmic reticulum (ER) stress” value [1] is reported as “increased endoplasmic reticulum (ER) stress”, the “expression of glucose-regulatory protein 78 (GRP-78)” value [1] is reported as “increased expression” and the “expression of the apoptosis marker CHOP” value [1] is reported as “increased expression”. The Kras expression [2] was “decreased Kras expression”.
In the case of `CC(C)=C1CC=C(CO)CC1` [iso-POH, (4-isopropylidene cyclohex-1-enyl)methanol], the “endoplasmic reticulum (ER) stress” value [1] is reported as “increased ER stress”, the “cytotoxicity (MTT)” value ([3]; LN229 human glioma cells, FIG. 1, versus POH of different purity) is reported as “much better cytotoxicity than POH with different purity” and the “cytotoxic response (MTT)” value ([3]; LN229 temozolomide sensitive, 48 hours, FIG. 6A) is reported as “same response”. The “cytotoxic response (MTT)” value [4] was “response pattern was also seen”, the “cytotoxic response (MTT)” value [5] was “greatest response” and the “cytotoxicity (MTT)” value ([6]; U251-TR1, 24 hours, FIG. 8C) was “greater cytotoxicity”. For the same compound, the “cytotoxicity (MTT)” value ([6]; U251-TR2, 24 hours, FIG. 8B) was “greater cytotoxicity”, the “cytotoxic response (MTT)” value [7] was “same response” and the “cytotoxicity (MTT)” value ([8]; TMZ sensitive U251, 24 hours, 0 mM-3 mM, FIG. 8A) was “greater cytotoxicity”. The “cytotoxic response (MTT)” value ([8]; U251 temozolomide-sensitive, 48 hours, FIG. 5A) was “greatest response”, the “cytotoxicity (MTT)” value ([8]; U1251 human glioma cells, FIG. 2, versus POH of different purity) was “much better cytotoxicity than POH with different purity” and the Kras expression [2] was “decreased Kras expression”. The “cytotoxic response (MTT)” value [9] was “greatest response”, the “cytotoxicity (MTT)” value ([10]; A172 human glioma cells, FIG. 3, versus POH of different purity) was “much better cytotoxicity than POH with different purity” and the “cytotoxic response (MTT)” value ([10]; A172 temozolomide-sensitive, 48 hours, FIG. 4A, compared to GLP POH and Sigma POH) was “greatest cytotoxic response”.
